Data: ChEMBL document CHEMBL1122382, “An evaluation of certain chain-extended analogues of 9-beta-D-arabinofuranosyladenine for antiviral and cardiovascular activity” (1983)

Columns and labels:
Human alphaherpesvirus 1 [1] = assay: Antiviral activity against herpes simplex virus type 1 (strain 377).; type: functional; details: read-out: ID50 (the source's name)
Human alphaherpesvirus 1 [2] = assay: Virus rating (VR) which is the weighted measurement of in vitro antiviral activity, based on the inhibition of virus-induced cytopathogenic effects. VR > 1, active.; type: functional
Canis familiaris [3] = assay: Compound was evaluated for the cardiovascular activity, expressed as maximum percent response achieved with standard (administered intravenously at a dose of 0.10 mg/kg) at a dose of 1.0 mg/kg of compound; type: functional, Canis lupus familiaris, Heart
Human alphaherpesvirus 1 [4] = assay: Compound was evaluated for virus rating (VR) which is the weighted measurement of in vitro antiviral activity, based on the inhibition of HSV-1 virus-induced cytopathogenic effects. VR = 0.5-0.9 indicates marginal activity; type: functional
Human alphaherpesvirus 1 [5] = assay: Antiviral activity against herpes simplex virus type 1 (strain HF).; type: functional; details: read-out: ID50 (the source's name)
Ara-A [6] = assay: Compound was evaluated for antiviral activity of the compound, expressed as ID50 for the inhibition of cellular DNA and protein synthesis in ara-A resistant cells; type: functional; details: Homo sapiens; read-out: ID50 (the source's name)
[7] = Compound was evaluated for antiviral activity of the compound, expressed as ID50 for the inhibition of cellular DNA and protein synthesis in wild-type cells; type: functional; details: read-out: ID50 (the source's name)
[8] = Compound was evaluated for in vitro therapeutic index ratio of the ID50 for inhibition of cellular DNA and protein synthesis to the ID50 for inhibition of virus replication; type: functional
Human alphaherpesvirus 1 [9] = assay: Virus rating (VR) which is the weighted measurement of in vitro antiviral activity, based on the inhibition of HSV-1 virus-induced cytopathogenic effects. VR > 1, active.; type: functional
Human alphaherpesvirus 1 [10] = assay: Compound was evaluated for virus rating (VR) which is the weighted measurement of in vitro antiviral activity, based on the inhibition of HSV-1 virus-induced cytopathogenic effects. VR > 1, active; type: functional
Canis familiaris [11] = assay: Compound was evaluated for the cardiovascular activity, expressed as maximum % response achieved with standard (administered intravenously at a dose of 0.10 mg/kg) at a dose of 1.0 mg/kg of the compound; type: functional, Canis lupus familiaris, Heart
[12] = Compound was evaluated for antiviral activity expressed as ID50 for the inhibition of cellular DNA and protein synthesis in wild-type cells; type: functional; details: read-out: ID50 (the source's name)
Ara-A [13] = assay: Compound was evaluated for antiviral activity expressed as ID50 for the inhibition of cellular DNA and protein synthesis in ara-A resistant cells; type: functional; details: Homo sapiens; read-out: ID50 (the source's name)

Question: What does the source list for `NC(=O)CC[C@H]1OC(n2cnc3c(N)ncnc32)[C@@H](O)[C@@H]1O` (some centres undefined)?
Answer: IC50 (Human alphaherpesvirus 1 [1]): 574 µM; VR (Human alphaherpesvirus 1 [2]): 1.6; Response (Canis familiaris [3]): 10%

Question: With `Nc1ncnc2c1ncn2C1O[C@H](CCC(=O)O)[C@@H](O)[C@@H]1O` (some centres undefined) as the compound, how does the VR (Human alphaherpesvirus 1 [4]) read?
Answer: Its VR is 0.3.

Question: Which IC50 (Human alphaherpesvirus 1 [5]) does the source give for `Nc1ncnc2c1ncn2C1O[C@H](CCCO)[C@@H](O)[C@@H]1O` (some centres undefined) here?
Answer: Its IC50 is 525 µM.

Question: What about the IC50 (Human alphaherpesvirus 1 [1]) of the same compound?
Answer: Its IC50 is 643 µM.

Question: And the IC50 (Ara-A [6])?
Answer: The IC50 was 1510 µM.

Question: What about the IC50 [7] of the same compound?
Answer: The IC50 was 1880 µM.

Question: What about the Ratio [8] of the same compound?
Answer: The Ratio was 2.1.

Question: What about the VR (Human alphaherpesvirus 1 [9]) of the same compound?
Answer: Its VR is 1.5.

Question: For `CCOC(=O)CC[C@H]1OC(n2cnc3c(N)ncnc32)[C@@H](O)[C@@H]1O` (some centres undefined), which IC50 (Human alphaherpesvirus 1 [1]) is on record?
Answer: Its IC50 is 729 µM.

Question: And the VR (Human alphaherpesvirus 1 [10])?
Answer: Its VR is 1.

Question: What about the Response (Canis familiaris [11]) of the same compound?
Answer: Its Response is 39%.

Question: For `Nc1ncnc2c1ncn2[C@@H]1O[C@H](CO)[C@@H](O)[C@H]1O` [ADENOSINE], which IC50 (Human alphaherpesvirus 1 [5]) is on record?
Answer: Its IC50 is 42 µM.

Question: And the IC50 (Human alphaherpesvirus 1 [1])?
Answer: The IC50 was 22 µM.

Question: And the VR (Human alphaherpesvirus 1 [2])?
Answer: The VR was 2.5.

Question: And the IC50 [12]?
Answer: Its IC50 is 2.4 µM.

Question: And the Ratio [8]?
Answer: Its Ratio is 3.1.

Question: And the IC50 (Ara-A [13])?
Answer: Its IC50 is 242 µM.
